Test results as given in patent US7148194B2, “Method to increase fibronectin” (Kimberly-Clark Worldwide, Inc., priority 2002, dated 2006).
Several values for one entry are separate records, joined by “and”; a condition that tells them apart may be missing. Equal values may be shown once.

Assays:
[1] = system: normal human dermal fibroblasts (NHDF); assay: NHDF migration assay, 48-well chemotaxis chamber; type: cell-based
Experimental: Normal, human dermal fibroblasts (NHDF) were obtained from Biowhittaker, (Walkersville, Md.) and propagated in T75 flasks in FBM media (500 mL, Biowhittaker) containing insulin, hFGF-b, GA-1000, and fetal bovine serum (10 mL) for up to 12 passages. For the migration assay, NHDF were washed once with 10 mL of Hank's buffered saline solution (HBSS). Three milliliters of trypsin (0.25%) in EDTA were added to the T75 flask for no more than five minutes to remove NHDF from the flask. NHDF in trypsin solution were added to 7 mL of FBM with no supplements added. NHDF were centrifuged for 5 minutes, and the supernatant was removed. NHDF were resuspended in 10 mL of FBM for counting. NHDF were centrifuged for another 5 minutes, and the supernatant was removed. NHDF were resuspended at 1×10^6 cells per mL in FBM without supplements. It was important to use FBM media only in migration assays because the complete media contains fibroblast growth factor and serum, both of which will trigger migration of fibroblasts.
Peptides were synthesized and purified by the Microchemical Facility at Emory University or by SigmaGenesis. All peptides were analyzed by mass spectrometry after HPLC to assess purity. Approximately 0.5–2.0 milligrams of peptide were used to make fresh stock solutions (5 mg/mL in PBS) for each migration assay. The peptide stock solutions in PBS were used to make more dilute solutions (1 mg/mL, 100 μg/mL, 10 μg/mL, 1 μg/mL, 100 ng/mL, 10 ng/mL) in FBM (without supplements) for the migration assays.
Polyvinylpyrrolidone-free polycarbonate membranes with […] pores (Neuroprobe, Inc., Gaithersburg, Md.) were washed with 90% ethanol for 15 minutes and rinsed four times with deionized water. Membranes were then placed into a glass dish containing an aqueous solution of 5 μg/mL gelatin. The glass dish was placed in to a water bath at about 90° C. for one hour. Membranes were removed from the gelatin solution and were allowed to dry for one hour in the 37° C. incubator.
A 48-well chemotaxis chamber (Neuroprobe, Inc., Gaithersburg, Md.) (see FIG. 20) was used for the migration assays. Twenty-eight μL of each test solution were added to the bottom wells of the chamber in quadruplicate. A gelatin-treated membrane was placed carefully on top of the bottom wells. The gasket and top part of chamber were then placed carefully on top of the membrane. The apparatus was tightened using six thumbscrews. A solution of NHDF containing an estimated cell density (2×10^5 cells per mL) was made by adding 320 μL of the 1×10^6 cells per mL solution to 1.28 mL of FBM (no supplements). Fifty microliters of the 2×10^5 cells per mL NHDF solution were added to the top part of each well in the chamber. The chamber was placed in the incubator at 37° C./5% CO2 for three hours. The chamber was removed, the thumbscrews were removed, and the chamber was turned upside down on a paper towel. […] The membrane was carefully removed. […] The membrane was fixed with methanol and stained using the Diff-Quik Staining Solutions I and II. The nuclei of NHDF are stained purple. The membrane was mounted on a glass slide using cedarwood immersion oil and a cover slip. […] The average number of migrated NHDF in the negative control was subtracted from the experimental (peptide) data and positive control data.

MMP-9 = target: T1, MMP-9 (Homo sapiens, UniProt P14780); assay: isothermal titration calorimetry with MMP-9; type: binding; conditions: ITC, 20 mM NaCl
T1 construct: Active MMP-9 enzyme was purchased from Calbiochem; purchased Calbiochem
T1 sequence (P14780 107-707 limits assumed): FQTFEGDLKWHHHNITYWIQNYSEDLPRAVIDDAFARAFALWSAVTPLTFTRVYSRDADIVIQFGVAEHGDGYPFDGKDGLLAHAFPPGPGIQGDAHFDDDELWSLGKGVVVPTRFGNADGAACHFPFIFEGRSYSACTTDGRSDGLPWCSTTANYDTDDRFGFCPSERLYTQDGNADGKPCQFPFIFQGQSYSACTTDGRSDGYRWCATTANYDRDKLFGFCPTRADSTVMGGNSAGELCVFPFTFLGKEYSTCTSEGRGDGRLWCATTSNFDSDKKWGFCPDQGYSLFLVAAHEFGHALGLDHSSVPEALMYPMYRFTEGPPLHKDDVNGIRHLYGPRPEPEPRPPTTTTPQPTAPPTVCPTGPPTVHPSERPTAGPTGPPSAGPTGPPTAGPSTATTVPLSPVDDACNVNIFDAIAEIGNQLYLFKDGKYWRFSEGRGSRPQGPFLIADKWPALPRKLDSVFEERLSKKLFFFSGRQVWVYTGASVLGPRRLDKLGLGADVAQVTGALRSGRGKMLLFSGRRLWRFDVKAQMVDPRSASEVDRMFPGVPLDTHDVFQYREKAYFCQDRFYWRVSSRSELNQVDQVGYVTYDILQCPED
Experimental: Isothermal titration calorimetry (ITC) was performed with a VP-ITC instrument from MicroCal, Inc. Titrations were carried out by injecting 5 μL of an inhibitor peptide solution (at concentration ranges from 0.5 mM to 2.0 mM) into the 1.4 mL stirred reaction cell. MMP-9 ranged in concentration from 50 to 80 μM in the cell. Both the inhibitor and the enzyme were in 20 mM sodium cacodylate (pH 5.5–7.0), 40 mM NaCl, or 20 mM Tris-HCl (pH 7.0–7.5), 40 mM NaCl. Titrations were conducted between 20° C. and 40° C. Typical experimental conditions for the titrations were a 10 second injection period followed by a 240 second delay between injections for a total of 40 injections. Blank titrations of inhibitor peptide into buffer were performed in order to correct for heats of dilution and mixing.
The independent set of multiple binding sites is the most common model for binding experiment evaluations. The analytical solution for the total heat is determined by (Freire et al., 1990):
[formula] where Q is the total heat, V is the cell volume, ΔH is the enthalpy, M is the macromolecule concentration (the binding partner in the cell), n is the binding stoichiometry, L is the ligand concentration (the binding partner in the syringe), and K is the association constant. Data were fit to this model using Origin version 5 (MicroCal, Inc.). Surface Plasmon Resonance
The peptide was dissolved in 20 mM cacodylate (pH 6.8), 20 mM NaCl at a final concentration of 1 mM. MMP-9 was dialyzed into the same buffer at a final concentration of 20 μM. A series of standard injections were performed as described above.

C57BL6/KsJ db/db mice = assay: wound healing in db/db diabetic mice; type: in vivo
Excerpt: The mice were obtained from The Jackson Laboratories and were aged 3–7 months before the onset of the wounding protocol. All mice were anesthetized prior to wounding. Wounds were created in C57BL6/KsJ db/db mice with a 4 mm biopsy punch. Two wounds were introduced onto the upper back of each animal by pulling the skin away from underlying structures and pushing the punch through the isolated skin. Typically, wounds were created to an average depth of 1.7 mm, with a range of 1.3 to 2.2 mm. No muscle involvement occurred during the course of wounding.
Each day the wounds were digitally photographed and wound areas were determined by computer integration of the photographs. All wound treatments and the subsequent data analyses were performed in a blind manner (see e.g., Brown et al., 1994). Wound area at the time of wounding (day 0) is arbitrarily set to a relative value of 1 for all wounds; such that subsequent wound areas are converted to relative wound areas by dividing the wound area at day n by the wound area at day zero.

[2] = MMP-9, 20 mM cacodylate (pH 6.8)
[3] = single dose 5 μL of 20 μg/mL at day zero

CC(C)[C@H](NC(=O)[C@H](CC(=O)O)NC(=O)[C@@H]1CCCN1C(=O)[C@H](CC(N)=O)NC(=O)CNC(=O)[C@H](CS)NC(=O)[C@H](CCCNC(=N)N)NC(=O)[C@@H]1CCCN1)C(=O)N[C@@H](C)C(=O)N[C@@H](CC(N)=O)C(=O)N[C@@H](Cc1ccc(O)cc1)C(=O)N[C@@H](CC(N)=O)C(=O)N[C@@H](Cc1ccccc1)C(=O)N[C@@H](Cc1ccccc1)C(=O)N1CCC[C@H]1C(=O)N[C@@H](CCCNC(=N)N)C(=O)N[C@@H](CCCCN)C(=O)N1CCC[C@H]1C(=O)N[C@@H](CCCCN)C(=O)O [Peptide 19-mer]
NHDF migration, percent of the plasma fibronectin positive control ([1]; 100 μg/mL peptide): 46±3% and 46%±3%
NHDF migration, percent of the plasma fibronectin positive control ([1]; 1000 μg/mL peptide): 55±3% and 55%±3%
NHDF migration, percent of the plasma fibronectin positive control ([1]; concentrations below 100 μg/mL): about 20%
Stoichiometry (MMP-9; MMP-9 20 μM, peptide 1 mM, 20 mM cacodylate (pH 6.8)): 0.975 ± 0.02
ΔH (MMP-9; [2]): -26.1 ± 1.45 kcal/mol
ΔS (MMP-9; [2]): −11.6 ± 2.2 cal mol^−1 K^−1
wound inflammation (C57BL6/KsJ db/db mice; day one post wounding): reduction in wound inflammation
day on which wound contraction process began (C57BL6/KsJ db/db mice; [3]): 5 days
time to wound closure post wounding (C57BL6/KsJ db/db mice; [3]): 9 days
